Test system: PDGF-BB-induced migration of A7r5 cells (VSMCs)
Test: In vitro wound healing assay
Assay type: cell-based
Settings: PDGF-BB 30 ng/ml, 5, 10 and 15 μM, 24, 48 and 72 hr, dose-dependent
Method: The VSMCs cell line A7r5 was purchased from Bioresource Collection and Research Center (Hsinchu, Taiwan). A7r5 cells were plated onto 6-well plates in DMEM, supplemented with 10% FBS, 100 units/ml penicillin, 100 μg/ml streptomycin and 2 mM L-glutamine and grown at 37° C. under a humidified 5% CO2 and 95% air at one atmosphere. The effects of pipoxolan on VSMCs migration were evaluated by a wound-healing assay. Platelet-derived growth factor (PDGF) form VMSCs can cause cell migration, which results in intimal hyperplasia. A7r5 cells were plated in 6-well plates (2×10^5 cells per well) and damage was performed with a single scratch wound using a sterile micropipette tip. Cells were then incubated with or without PDGF-BB (30 ng/ml) and pipoxolan (5, 10, 15 μM) in serum-reduced DMEM medium (containing 0.5% fetal bovine serum). The extent of wound closure was determined using a phase contrast microscope at 24, 48, and 72 hr following wounding. Cell migration was expressed by the migration distance of drug-treated cells (mm) divided by the migration distance of untreated cells (mm).

Cl.O=C1OC(CCN2CCCCC2)OC1(c1ccccc1)c1ccccc1 (stereo not shown) [pipoxolan, 5,5-diphenyl-2-(2-piperidin-1-ylethyl)-1,3-dioxolan-4-one hydrochloride]
effect on PDGF-BB-induced cell migration (wound closure): markedly inhibited
